Laboratory results taken from patent US3965109A, “Certain aryl amino pyridines” (priority 1971, dated 1976).

Key:
Type in all cases: in vivo
[1] = tested on: Tetranychus telarius (red spider mites, adults); assay: Pest toxicity test; conditions: 0.1% by weight; French bean; 3 days
[2] = tested on: Tetranychus telarius (red spider mites, eggs); assay: Pest toxicity test; conditions: 0.1% by weight; French bean; 3 days
Aphis fabae = assay: Pest toxicity test; conditions: 0.1% by weight; broad bean; 2 days
Megoura viceae = assay: Pest toxicity test; conditions: 0.1% by weight; broad bean; 2 days
[3] = tested on: Aedes aegypti (mosquito larvae); assay: Pest toxicity test; conditions: for Mortality grading (kill): 0.01% by weight, water, 1 day
[4] = tested on: Aedes aegypti (mosquito adults); assay: Pest toxicity test; conditions: 0.01% by weight; plywood; 1 day
[5] = tested on: Musca domestica (houseflies); assay: Pest toxicity test, contact test; conditions: 0.1% by weight; milk/sugar; 2 days; flies sprayed directly
[6] = tested on: Pieris brassicae (cabbage white caterpillars); assay: Pest toxicity test; conditions: 0.1% by weight, 2 days
[7] = tested on: Plutella maculipennis (diamond back moth larvae); assay: Pest toxicity test
[8] = tested on: Phaedon cochleariae (mustard beetles); assay: Pest toxicity test
[9] = tested on: Puccinia recondita (wheat); assay: Fungicidal test against foliar disease A (foliage spray plus soil drench); conditions: 100 ppm spray and drench; 10 days
[10] = tested on: Phytophthora infestans (tomato); conditions: 100 ppm spray and drench; 3 days
[11] = tested on: Plasmopara viticola (vine); assay: Fungicidal test against foliar disease C (foliage spray plus soil drench); conditions: 100 ppm spray and drench; 10 days
Uncinula necator (vine) = assay: Fungicidal test against foliar disease D (foliage spray plus soil drench); conditions: 100 ppm spray and drench; 10 days
[12] = tested on: Piricularia oryzae (rice); conditions: 100 ppm spray and drench; 7 days
Lettuce = assay: Herbicidal test, pre- and post-emergence
Tomato = assay: Herbicidal test, pre- and post-emergence
Wheat = assay: Herbicidal test, pre- and post-emergence
Maize = assay: Herbicidal test, pre- and post-emergence
Sugar beet = assay: Further herbicidal test, various rates; conditions: 5 lb/acre; scale 0 to 5 (complete kill)
Kale = assay: Further herbicidal test, various rates; conditions: 5 lb/acre; scale 0 to 5 (complete kill)
Carrot = assay: Further herbicidal test, various rates; conditions: 5 lb/acre; scale 0 to 5 (complete kill)
Pea = assay: Further herbicidal test, various rates; conditions: 5 lb/acre; scale 0 to 5 (complete kill)
Onion = assay: Further herbicidal test, various rates; conditions: 5 lb/acre; scale 0 to 5 (complete kill)
Barley = assay: Further herbicidal test, various rates; conditions: 5 lb/acre; scale 0 to 5 (complete kill)
Rice = assay: Further herbicidal test, various rates; conditions: 5 lb/acre; scale 0 to 5 (complete kill)
Oat = assay: Further herbicidal test, various rates; conditions: 5 lb/acre; scale 0 to 5 (complete kill)
[13] = 0.1% by weight, mustard/paper, 2 days
[14] = 10 lb/acre (11.2 kg/ha), scale 0 (no effect) to 3 (complete kill)
[15] = 10 kg/ha, scale 0 to 3 (complete kill)

## Fc1nc(F)c(Cl)c(Nc2ccccc2)c1Cl [Compound 2, 4-Anilino-3,5-dichloro-2,6-difluoropyridine]
[1]
  Mortality grading (kill): 3 (3 represents over 90% kill)
[2]
  Mortality grading (kill): 0 (O represents less than 30% kill)
Aphis fabae
  Mortality grading (kill): 0 (O represents less than 30% kill)
Megoura viceae
  Mortality grading (kill): 0 (O represents less than 30% kill)
[3]
  Mortality grading (kill): 0 (O represents less than 30% kill)
[4]
  Mortality grading (kill): 0 (O represents less than 30% kill)
[5]
  Mortality grading (kill), contact test: 0 (O represents less than 30% kill)
[6]
  Mortality grading (kill): 0 (O represents less than 30% kill)
[7]; [13]
  Mortality grading (kill): 0 (O represents less than 30% kill)
[8]; [13]
  Mortality grading (kill): 0 (O represents less than 30% kill)

## Fc1nc(F)c(Cl)c(Nc2c(Cl)cc(Cl)cc2Cl)c1Cl [Compound 7, 3,5-Dichloro-2,6-difluoro-4(2,4,6-trichloroanilino)pyridine]
[9]
  Amount of disease grading, disease A: 2 (6 to 25)
[10]
  Amount of disease grading, disease B: 0 (61 to 100)
[11]
  Amount of disease grading, disease C: 0 (61 to 100)
Uncinula necator (vine)
  Amount of disease grading, disease D: 0 (61 to 100)
[12]
  Amount of disease grading, disease E: 0 (61 to 100)
[3]; in vivo
  abnormal growth effects in larva of mosquitos: abnormal growth effects

## Fc1nc(F)c(Cl)c(Nc2c(F)c(F)c(F)c(F)c2F)c1Cl [Compound 10, 3,5-Dichloro-2,6-difluoro-4(pentafluoroanilino)pyridine]
[1]
  Mortality grading (kill): 3 (3 represents over 90% kill)
Aphis fabae
  Mortality grading (kill): 0 (O represents less than 30% kill)
Megoura viceae
  Mortality grading (kill): 0 (O represents less than 30% kill)
[3]
  Mortality grading (kill): 2 (2 represents 60 - 90% kill)
[4]
  Mortality grading (kill): 2 (2 represents 60 - 90% kill)
[5]
  Mortality grading (kill), contact test: 0 (O represents less than 30% kill)
[6]
  Mortality grading (kill): 0 (O represents less than 30% kill)
[7]; in vivo
  Mortality grading (kill): 0 (key: O represents less than 30% kill; 1 represents 30 - 49% kill; 2 represents 60 - 90% kill; 3 represents over 90% kill; C indicates a chemosterilant effect.; A indicates an antifeeding effect.)
[8]; in vivo
  Mortality grading (kill): 0 (key: O represents less than 30% kill; 1 represents 30 - 49% kill; 2 represents 60 - 90% kill; 3 represents over 90% kill; C indicates a chemosterilant effect.; A indicates an antifeeding effect.)
Lettuce; [14]
  Damage to plants, post-emergence: 3
  Damage to plants, pre-emergence: 2
Tomato; [14]
  Damage to plants, post-emergence: 3
  Damage to plants, pre-emergence: 1
Wheat; [14]
  Damage to plants, post-emergence: 1
  Damage to plants, pre-emergence: 0
Maize; [14]
  Damage to plants, post-emergence: 0
  Damage to plants, pre-emergence: 0
Sugar beet
  Damage to plants, post-emergence: 3
  Damage to plants, pre-emergence: 0
Kale
  Damage to plants, post-emergence: 3
  Damage to plants, pre-emergence: 1
Carrot
  Damage to plants, post-emergence: 2
  Damage to plants, pre-emergence: 1
Pea
  Damage to plants, post-emergence: 0
  Damage to plants, pre-emergence: 3
Onion
  Damage to plants, post-emergence: 2
  Damage to plants, pre-emergence: 0
Barley
  Damage to plants, post-emergence: 0
  Damage to plants, pre-emergence: 3
Rice
  Damage to plants, post-emergence: 0
Oat
  Damage to plants, post-emergence: 0
  Damage to plants, pre-emergence: 0

## Fc1nc(F)c(Cl)c(Nc2cccc(C(F)(F)F)c2)c1Cl [Compound 17, 3,5-Dichloro-2,6-difluoro-4(3-trifluoromethylanilino)pyridine]
[9]
  Amount of disease grading, disease A: 0 (61 to 100)
[10]
  Amount of disease grading, disease B: 1 (26 to 60)
[11]
  Amount of disease grading, disease C: 3 (0 to 5)
Uncinula necator (vine)
  Amount of disease grading, disease D: 0 (61 to 100)
[12]
  Amount of disease grading, disease E: 0 (61 to 100)

## CN(C)S(=O)(=O)c1cc(Cl)c(Nc2c(Cl)c(F)nc(F)c2Cl)cc1Cl [Compound 31, 3,5-Dichlor-2,6-difluoro-4(2,5-dichlor-4-N,N-dimethylsulphamoylanilino)pyridine]
[9]
  Amount of disease grading, disease A (Table 4): 2 (6 to 25)
[10]
  Amount of disease grading, disease B (Table 4): 0 (61 to 100)
[11]
  Amount of disease grading, disease C (Table 4): 3 (0 to 5)
Uncinula necator (vine)
  Amount of disease grading, disease D (Table 4): 3 (0 to 5)
[12]
  Amount of disease grading, disease E (Table 4): 0 (61 to 100)

## O=[N+]([O-])c1ccc(Nc2c(Cl)c(F)nc(F)c2Cl)cc1C(F)(F)F [Compound 36, 3,5-Dichloro-2,6-difluoro-4(4-nitro-3-trifluoromethylanilino) pyridine]
[9]
  Amount of disease grading, disease A (Table 4): 2 (6 to 25)
[10]
  Amount of disease grading, disease B (Table 4): 2 (6 to 25)
[11]
  Amount of disease grading, disease C (Table 4): 3 (0 to 5)
Uncinula necator (vine)
  Amount of disease grading, disease D (Table 4): 0 (61 to 100)
[12]
  Amount of disease grading, disease E (Table 4): 1 (26 to 60)

## O=[N+]([O-])c1ccc(Nc2c(F)c(F)nc(F)c2Cl)c([N+](=O)[O-])c1 [Compound 38, 3-Chloro-4(2,4-dinitroanilino)-2,5,6-trifluoropyridine]
[9]
  Amount of disease grading, disease A (Table 4): 1 (26 to 60)
[11]
  Amount of disease grading, disease C (Table 4): 3 (0 to 5)
Uncinula necator (vine)
  Amount of disease grading, disease D (Table 4): 3 (0 to 5)
[12]
  Amount of disease grading, disease E (Table 4): 2 (6 to 25)
[1]
  Mortality grading (kill): 3 (3 represents over 90% kill)
[2]
  Mortality grading (kill): 3 (3 represents over 90% kill)
Aphis fabae
  Mortality grading (kill): 0 (O represents less than 30% kill)
Megoura viceae
  Mortality grading (kill): 0 (O represents less than 30% kill)
[3]
  Mortality grading (kill): 3 (3 represents over 90% kill)
[4]
  Mortality grading (kill): 0 (O represents less than 30% kill)
[5]
  Mortality grading (kill), contact test: 0 (O represents less than 30% kill)
[6]
  Mortality grading (kill): 3 (3 represents over 90% kill)
[7]; in vivo
  Mortality grading (kill): 0 (key: O represents less than 30% kill; 1 represents 30 - 49% kill; 2 represents 60 - 90% kill; 3 represents over 90% kill; C indicates a chemosterilant effect.; A indicates an antifeeding effect.)
[8]; in vivo
  Mortality grading (kill): 0 (key: O represents less than 30% kill; 1 represents 30 - 49% kill; 2 represents 60 - 90% kill; 3 represents over 90% kill; C indicates a chemosterilant effect.; A indicates an antifeeding effect.)
Lettuce; [15]
  Damage to plants, post-emergence: 3
  Damage to plants, pre-emergence: 3
Tomato; [15]
  Damage to plants, post-emergence: 3
  Damage to plants, pre-emergence: 3
Wheat; [15]
  Damage to plants, post-emergence: 0
  Damage to plants, pre-emergence: 2
Maize; [15]
  Damage to plants, post-emergence: 0
  Damage to plants, pre-emergence: 0

## O=[N+]([O-])c1cc([N+](=O)[O-])c(Nc2c(F)c(F)nc(F)c2F)cc1F [Compound 39, 4(2,4-Dinitro-5-fluoranilino)tetrafluoropyridine]
[9]
  Amount of disease grading, disease A (Table 4): 1 (26 to 60)
[10]
  Amount of disease grading, disease B (Table 4): 2 (6 to 25)
[11]
  Amount of disease grading, disease C (Table 4): 3 (0 to 5)
Uncinula necator (vine)
  Amount of disease grading, disease D (Table 4): 0 (61 to 100)
[12]
  Amount of disease grading, disease E (Table 4): 1 (26 to 60)

## CNC(=O)N(c1c(F)c(F)c(C#N)c(F)c1F)c1c(Cl)c(F)nc(OC)c1Cl [Compound 46]
[1]
  Mortality grading (kill): 2 (2 represents 60 - 90% kill)
[2]
  Mortality grading (kill): 0 (O represents less than 30% kill)
Aphis fabae
  Mortality grading (kill): 0 (O represents less than 30% kill)
Megoura viceae
  Mortality grading (kill): 0 (O represents less than 30% kill)
[3]
  Mortality grading (kill): 3 (3 represents over 90% kill)
[4]
  Mortality grading (kill): 0 (O represents less than 30% kill)
[5]
  Mortality grading (kill), contact test: 0 (O represents less than 30% kill)
[6]
  Mortality grading (kill): 0 (O represents less than 30% kill)
[7]; [13]
  Mortality grading (kill): 0 (O represents less than 30% kill)
[8]; [13]
  Mortality grading (kill): 0 (O represents less than 30% kill)
